Data: patent US8946142B2, “Beta-arrestin effectors and compositions and methods of use thereof” (Trevena, Inc., priority 2012, dated 2015)
Where a SMILES comes first, the peptide text is derived from it. [ ]: non-standard residue; d: D form. The star is where a group is joined. Ac6c = NC1(C(=O)O)CCCCC1; NHiPr = CC(C)N*; Sar = CNCC(=O)O

Legend:
Type in all cases: cell-based
human AT1R [1] = molecular target: T1, human AT1R (Homo sapiens, UniProt P30556); assay: beta-arrestin2 recruitment assay (PathHunter), human AT1R; settings: for Emax: 1 h, read-out: Span (relative to hAngII)
T1 sequence (P30556 1-359): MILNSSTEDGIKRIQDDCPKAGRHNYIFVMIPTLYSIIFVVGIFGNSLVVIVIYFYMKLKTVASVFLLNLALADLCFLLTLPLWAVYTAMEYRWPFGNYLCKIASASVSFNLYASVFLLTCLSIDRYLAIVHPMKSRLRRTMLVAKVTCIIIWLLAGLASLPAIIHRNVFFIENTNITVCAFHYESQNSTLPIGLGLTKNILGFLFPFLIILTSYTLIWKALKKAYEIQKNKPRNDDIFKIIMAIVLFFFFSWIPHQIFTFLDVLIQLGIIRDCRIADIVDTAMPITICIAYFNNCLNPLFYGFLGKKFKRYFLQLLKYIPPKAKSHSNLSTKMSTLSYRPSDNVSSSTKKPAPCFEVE
Experimental: (§1) The proximal event in β-arrestin function mediated by GPCRs is recruitment to receptors following ligand binding and receptor phosphorylation by GRK's. Thus, the measure of β-arrestin recruitment was used to determine ligand efficacy for β-arrestin function.
(§2) B-arrestin-2 recruitment to the human and rat angiotensin 2 type 1 receptor (human AT1R and rat AT1aR, respectively) was measured with the PathHunter™ μl-arrestin assay (DiscoveRx Corporation, Fremont Calif.). Cells, plasmid(s), and detection reagent(s) were purchased from DiscoveRx, and assays were performed per manufacturer's instructions. Human AT1R and rat AT1aR were cloned into the pCMV-ProLink vector, verified by sequencing, and transfected into PathHunter β-arrestin HEK293 cells. Stably transfected clonal cell lines were selected with Hygromycin and G418. These clonal cell lines were used for all experiments.
(§3) For assays, 4,000-8,000 cells were seeded per well in 384-well microplates “HiBase” small-volume plate in volumes of 20 uL and grown overnight in the incubator (37° C., 5% CO2, saturated humidity). Peptides were dissolved in DMSO to a concentration of 10 mM. Peptides were then further diluted in assay buffer (Hank's balanced salt solution with 20 mM HEPES) to add peptide to the cells to reach final concentrations ranging from 100 μM to 1 pM. Cells were then incubated for 60 minutes at 37° C. in 5% CO2, followed by addition of 2 μL of PathHunter Detection Reagent to each well. The microplates were then incubated at room temperature for 60 minutes, and then luminescence was measured using a PHERAstar Plus microplate reader from BMG Labtech. B-arrestin-2 recruitment to receptors was measured as relative luminescence intensity expressed in arbitrary units.

rat AT1aR [2] = molecular target: T2, rat AT1aR (Rattus norvegicus, UniProt P25095); assay: IP1 accumulation assay (IP1 G-protein assay), rat AT1aR; settings: for Emax: read-out: Span (relative to hAngII)
T2 sequence (P25095 1-359): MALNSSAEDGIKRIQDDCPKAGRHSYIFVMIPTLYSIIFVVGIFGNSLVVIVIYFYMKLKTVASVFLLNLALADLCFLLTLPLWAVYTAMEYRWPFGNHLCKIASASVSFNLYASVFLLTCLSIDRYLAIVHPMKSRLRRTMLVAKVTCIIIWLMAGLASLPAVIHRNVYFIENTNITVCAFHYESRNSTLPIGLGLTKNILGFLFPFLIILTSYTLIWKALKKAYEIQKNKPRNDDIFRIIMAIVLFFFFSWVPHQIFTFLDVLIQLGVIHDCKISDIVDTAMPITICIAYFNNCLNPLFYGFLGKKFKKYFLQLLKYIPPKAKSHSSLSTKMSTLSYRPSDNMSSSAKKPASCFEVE
Experimental: (§4) A secondary measure of G protein coupling efficacy was also performed. IP3 is generated by activation of phospholipase C by Gα-q. IP3 is degraded to IP1, which can be forced to accumulate in cells by blocking degradation with lithium chloride. Thus we measured accumulation of IP1 to determine ligand efficacy for G protein activation.
(§5) IP1 accumulation generated by human and rat angiotensin 2 type 1 receptor (human AT1R and rat AT1aR, respectively) was measured with IP-One Tb kits purchased from Cisbio and used per the manufacturer's instructions. Clonal stably transfected cell lines expressing human AT1TR or rat AT1aR were used for all experiments.
(§6) For assays, 4,000-8,000 cells were seeded per well in 384-well small-volume microplates “HiBase” small-volume plate in volumes of 20 uL and allowed to grow overnight at 37° C. in 5% CO2. Cell growth media was then replaced with stimulation buffer supplied by Cisbio containing 50 mM lithium chloride. […] For agonist detection, peptides were then further diluted in stimulation buffer to add peptide to the cells to reach final concentrations ranging from 100 uM to 1 pM. Following addition of peptides, cells were incubated at 37° C. in 5% CO2 for 30 minutes and then lysed with 4 uL of pre-mixed HTRF IP-One reagents diluted per manufacturer's instructions (Cisbio). Microplates were incubated for 60-90 minutes at room temperature and then time-resolved fluorescence intensities were measured using a PHERAstar Plus microplate reader from BMG Labtech. IP1 accumulation was measured as change in ratio of time-resolved fluorescent intensities measured at 665 nm and 620 nm.

human AT1R [3] = molecular target: T1, human AT1R; assay: IP1 accumulation assay (IP1 G-protein assay), human AT1R; settings: for Emax: read-out: Span (relative to hAngII)
Experimental: as §4, §5, §6

rat AT1aR [4] = molecular target: T2, rat AT1aR; assay: beta-arrestin2 recruitment assay (PathHunter), rat AT1aR; settings: for Emax: 1 h, read-out: Span (relative to hAngII)
Experimental: as §1, §2, §3

SMILES | Emax (human AT1R [1]) [%] | Emax (rat AT1aR [2]) [%] | Emax (human AT1R [3]) [%] | Emax (rat AT1aR [4]) [%] | EC50 (human AT1R [1]; read-out: EC50) [nM] | EC50 (human AT1R [1]; read-out: pEC50 (converted)) [nM] | EC50 (human AT1R [3]; read-out: EC50) [nM] | EC50 (human AT1R [3]; read-out: pEC50 (converted)) [nM] | EC50 (rat AT1aR [4]; read-out: EC50) [nM] | EC50 (rat AT1aR [4]; read-out: pEC50 (converted)) [nM] | EC50 (rat AT1aR [2]; read-out: EC50) [nM] | EC50 (rat AT1aR [2]; read-out: pEC50 (converted)) [nM] | EC50 (nM) (rat AT1aR [4]) | pEC50 (rat AT1aR [4])
CNCC(=O)N[C@@H](CCCNC(=N)N)C(=O)N[C@H](C(=O)N[C@@H](Cc1ccc(O)cc1)C(=O)N1CCC[C@H]1C(=O)N[C@@H](Cc1c[nH]cn1)C(=O)N1CCC[C@H]1C(=O)N[C@H](C(=O)O)C(C)C)C(C)C [SEQ ID NO: 6, Sar-Arg-Val-Tyr-Pro-His-Pro-Val] (H-[Sar]RVYPHPV-OH; N-terminus and C-terminus assumed) | < 101 | < 104 | < 103 | < 105 |  |  |  |  |  |  |  |  |  | 
CNCC(=O)N[C@@H](CCCNC(=N)N)C(=O)N[C@H](C(=O)N[C@@H](Cc1ccc(O)cc1)C(=O)NC1(C(=O)N[C@@H](Cc2c[nH]cn2)C(=O)N2CCC[C@H]2C(=O)NC(C)C)CCCCC1)C(C)C [SEQ ID NO: 46, Sar-Arg-Val-Tyr-cyHex-His-Pro-NH-i-Pr] (H-[Sar]RVY[Ac6c]HP-NHiPr) | < 101 |  | < 103 | < 105 | > 3.2 | > 3.16 | > 1.3 | > 0.631 | > 3.2 | > 3.16 |  |  |  | 
CNCC(=O)N[C@@H](CCCNC(=N)N)C(=O)N[C@H](C(=O)N[C@@H](Cc1ccc(O)cc1)C(=O)N1CCC[C@H]1C(=O)N[C@@H](Cc1c[nH]cn1)C(=O)N1CCC[C@H]1C(=O)N[C@H](C)C(=O)O)C(C)C [SEQ ID NO: 60, Sar-Arg-Val-Tyr-Pro-His-Pro-D-Ala] (H-[Sar]RVYPHP[dA]-OH) | < 101 | < 104 | < 103 | < 105 | > 3.2 | > 3.16 | > 1.3 | > 0.631 | > 3.2 | > 3.16 | > 0.6 | > 0.631 |  | 
CNCC(=O)N[C@@H](CCSC)C(=O)N[C@H](C(=O)N[C@@H](Cc1ccc(O)cc1)C(=O)NC1(C(=O)N[C@@H](Cc2c[nH]cn2)C(=O)N2CCC[C@H]2C(=O)N[C@@H](C)C(=O)O)CCCCC1)C(C)C [SEQ ID NO: 45, Sar-Met-Val-Tyr-cyHex-His-Pro-Ala] (H-[Sar]MVY[Ac6c]HPA-OH; N-terminus and C-terminus assumed) | < 101 |  | < 103 | < 105 |  |  |  |  |  |  |  |  |  | 
CNCC(=O)N[C@@H](CCCNC(=N)N)C(=O)N[C@H](C(=O)N[C@@H](Cc1ccc(O)cc1)C(=O)NC1(C(=O)N[C@@H](Cc2c[nH]cn2)C(=O)N2CCC[C@H]2C(=O)N[C@H](C(=O)O)C(C)C)CCCCC1)C(C)C [SEQ ID NO: 13, Sar-Arg-Val-Tyr-cyHex-His-Pro-Val] (H-[Sar]RVY[Ac6c]HPV-OH) | 103 |  |  | < 105 | > 3.2 | > 3.16 | > 1.3 | > 0.631 | > 3.2 | > 3.16 | > 0.6 | > 0.631 |  | 
CCCCc1nc(Cl)c(CO)n1Cc1ccc(-c2ccccc2-c2nn[nH]n2)cc1 [losartan, reference compound] |  | < 104 |  |  |  |  |  |  |  |  |  |  | Inactive | Inactive
